# Measured values taken from patent US12605419B2, “Flavonoid extract of Cyclocarya paliurus leaves and antibacterial drugs and/or antibacterial agents containing thereof” (priority 2020, dated 2026).
# Where two headings read alike, the source gives them in different places.
# Tests used:
# [1] = system: MRSA-3; experiment: Sensitivity test (MIC, broth dilution per CLSI); format: cell-based, Methicillin-resistant S. aureus; details: strain MRSA-3, MHB with 2% NaCl, 34° C., 24 hours, minimum concentration without colony growth
# Procedure: (§1) By referring to the methods and standards of the American Clinical and Laboratory Standards Institute (CLSI) for antimicrobial susceptibility testing, the drug resistance of each strain was verified. The MHB medium used in this test contained 2% NaCl (w/v).
# (§2) Preparation of test bacteria: each bacterium was respectively inoculated in 5 ml MHB medium, and cultured overnight at 37° C. on a shaker. The bacterial solution was adjusted to 0.5 McFarland turbidity (MCF) unit, and further diluted by 100 folds. The final bacterial concentration was 5×10^5 cfu/ml.
# (§3) Preparation of the flavonoids extract of C. paliurus leaves for application: 79.8 mg powder of the flavonoid extract from C. paliurus leaves prepared in Example 1 (based on the flavonoids proportion of 67.3581 wt. % in the flavonoids extract of C. paliurus leaves, the amount of flavonoids in the powder was 53.75 mg) was dissolved in 0.32 ml of DMSO, and further diluted with 3.68 ml MHB medium, to obtain the application solution of C. paliurus leaf with a flavonoids concentration at 13.44 mg/ml.
# (§4) 100 μl of medium was added into the second well, and serial 2-fold dilutions were prepared until to the ninth well. The 10th well was set as the medium control.
# (§5) Sensitivity test: 100 μl of the bacterial solution prepared above was added to the wells with serial concentration of drugs and the medium control. The plate was placed in a humidified box and incubated at 34° C. for 24 hours. 20 μl of each bacterial solution was taken and diluted 50 times with the medium, then 100 μl of the diluted bacterial solution was spread on the culture plate and incubated overnight at 37° C. The minimum drug concentration without colony growth was determined as the minimum inhibitory concentration (MIC).
# [2] = system: MRSA-1; experiment: Sensitivity test (MIC, broth dilution per CLSI); format: cell-based, Methicillin-resistant S. aureus; details: strain MRSA-1, MHB with 2% NaCl, 34° C., 24 hours, minimum concentration without colony growth
# Procedure: as §1, §2, §3, §4, §5
# [3] = system: MRSA-2; experiment: Sensitivity test (MIC, broth dilution per CLSI); format: cell-based, Methicillin-resistant S. aureus; details: strain MRSA-2, MHB with 2% NaCl, 34° C., 24 hours, minimum concentration without colony growth
# Procedure: as §1, §2, §3, §4, §5
# [4] = system: MRSA-5; experiment: Sensitivity test (MIC, broth dilution per CLSI); format: cell-based, Methicillin-resistant S. aureus; details: strain MRSA-5, MHB with 2% NaCl, 34° C., 24 hours, minimum concentration without colony growth
# Procedure: as §1, §2, §3, §4, §5
# [5] = system: MRSA strains; experiment: Sensitivity test, MRSA strains compared with ATCC25923; format: cell-based, Methicillin-resistant S. aureus; details: each MRSA strain vs ATCC25923
# Procedure: as §1, §2
# as §3, with “mg/ml. […]” for “mg/ml.”
# (§6) Sensitivity test: 100 μl of the bacterial solution prepared above was added to the wells with serial concentration of drugs and the medium control. […] The minimum drug concentration without colony growth was determined as the minimum inhibitory concentration (MIC).
# [6] = system: S. aureus ATCC25923; experiment: Sensitivity test (MIC, broth dilution per CLSI); format: cell-based; details: strain ATCC25923, MHB with 2% NaCl, 34° C., 24 hours, minimum concentration without colony growth
# Procedure: as §1, §2
# as §3, with “mg/ml. […]” for “mg/ml.”
# as §6
# [7] = system: MRSA-4; experiment: Sensitivity test (MIC, broth dilution per CLSI); format: cell-based, Methicillin-resistant S. aureus; details: Staphylococcus aureus; strain MRSA-4; MHB with 2% NaCl, 34° C., 24 hours; minimum concentration without colony growth
# Procedure: Sensitivity test: 100 μl of the bacterial solution prepared above was added to the wells with serial concentration of drugs and the medium control. The plate was placed in a humidified box and incubated at 34° C. for 24 hours. […] The minimum drug concentration without colony growth was determined as the minimum inhibitory concentration (MIC).
# [8] = Staphylococcus aureus, read-out: MIC
MIC [1],MIC [2],MIC [3],MIC [4],MIC [6],Compound,Sensitivity of each MRSA strain compared with S. aureus ATCC25923 [5],MIC [7],"MIC [1, 8]","MIC [2, 8]","MIC [3, 8]","MIC [4, 8]","MIC [6, 8]"
0.5 µg/mL,0.5 µg/mL,0.5 µg/mL,0.5 µg/mL,0.125 µg/mL,Cc1onc(-c2ccccc2)c1C(=O)N[C@@H]1C(=O)N2[C@@H]1SC(C)(C)[C@@H]2C(=O)[O-].[Na+] [oxacillin sodium],lower than that of the standard strain of S. aureus ATCC25923,,,,,,
,,,,,CC1(C)S[C@@H]2[C@H](NC(=O)Cc3ccccc3)C(=O)N2[C@H]1C(=O)O [penicillin sodium],lower than that of the standard strain of S. aureus ATCC25923,32 µg/mL,1 µg/mL,4 µg/mL,1 µg/mL,4 µg/mL,0.0312 µg/mL
